Like-named read-outs stand apart in the source and are kept apart here.
What was measured:
mGAT1 [1] = molecular target: T1, mGAT1 (Mus musculus, UniProt P31648); test: MS Binding Assay with NO711 as native MS marker; settings: MS Binding Assay, NO711 marker; pKi±SEM; read-out: pK i mGAT1 (converted)
T1 construct: expressed in transfected cells; host or cells: HEK293
Outline: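 Competitive MS binding using membranes from HEK293 cells stably expressing mGAT1, with 10 nM unlabeled NO711 as marker and compounds at 7 concentrations. Nonspecific binding defined with 100 mM GABA. Bound NO711 eluted after filtration and quantified by LC-ESI-MS/MS against [2H10]NO711; Ki derived.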

mGAT1 [2] = molecular target: T1, mGAT1; test: [^3H]GABA uptake assay, HEK293 cells expressing mGAT1; format: cell-based; settings: [^3H]GABA uptake; pIC50±SEM
Outline: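 HEK293 cells expressing mouse GATs preincubated 25 min at 37 °C with compound in Krebs buffer pH 7.2, then [3H]GABA added: 8 nM plus 32 nM unlabeled for 4 min (mGAT1/3/4), 20 nM plus 20 nM for 10 min (mGAT2). Filtration, scintillation counting; nonspecific uptake with 10 mM (mGAT1/3/4) or 100 mM GABA (mGAT2); pIC50.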

mGAT4 = molecular target: T2, mGAT4 (Mus musculus, UniProt P31650); test: GABA uptake inhibition at mGAT4 with varied preincubation time; format: cell-based
T2 construct: expressed in transfected cells; host or cells: HEK293
T2 sequence (P31650 1-627): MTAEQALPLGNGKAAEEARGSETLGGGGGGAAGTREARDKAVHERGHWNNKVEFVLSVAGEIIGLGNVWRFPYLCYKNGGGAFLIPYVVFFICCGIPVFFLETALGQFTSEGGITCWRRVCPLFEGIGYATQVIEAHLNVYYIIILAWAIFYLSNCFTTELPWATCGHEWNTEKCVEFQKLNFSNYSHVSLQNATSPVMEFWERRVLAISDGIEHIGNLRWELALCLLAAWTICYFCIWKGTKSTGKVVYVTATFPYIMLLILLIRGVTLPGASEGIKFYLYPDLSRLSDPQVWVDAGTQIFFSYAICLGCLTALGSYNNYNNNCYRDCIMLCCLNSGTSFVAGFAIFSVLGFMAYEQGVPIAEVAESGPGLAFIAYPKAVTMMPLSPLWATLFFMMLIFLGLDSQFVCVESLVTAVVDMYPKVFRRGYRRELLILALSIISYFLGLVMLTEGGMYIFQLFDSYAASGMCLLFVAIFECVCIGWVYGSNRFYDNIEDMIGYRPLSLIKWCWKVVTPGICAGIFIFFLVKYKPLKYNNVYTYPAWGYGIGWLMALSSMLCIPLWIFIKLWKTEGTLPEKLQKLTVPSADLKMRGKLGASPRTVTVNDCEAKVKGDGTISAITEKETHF

Ki (mGAT1 [1]): 38.9 µM
IC50 (mGAT1 [2]): 67.6 µM
IC50 (mGAT4; Experiment No. 1, preincubation time 10 min, read-out: pIC50 mGAT4 (converted)): 1.35 µM
IC50 (mGAT4; Experiment No. 1, preincubation time 25 min, read-out: pIC50 mGAT4 (converted)): 1.05 µM
IC50 (mGAT4; Experiment No. 1, preincubation time 60 min, read-out: pIC50 mGAT4 (converted)): 0.912 µM
IC50 (mGAT4; Experiment No. 2, preincubation time 10 min, read-out: pIC50 mGAT4 (converted)): 2.69 µM
IC50 (mGAT4; Experiment No. 2, preincubation time 25 min, read-out: pIC50 mGAT4 (converted)): 1.86 µM
IC50 (mGAT4; Experiment No. 2, preincubation time 60 min, read-out: pIC50 mGAT4 (converted)): 1.23 µM
IC50 (mGAT4; Experiment No. 3, preincubation time 10 min, read-out: pIC50 mGAT4 (converted)): 2.69 µM
IC50 (mGAT4; Experiment No. 3, preincubation time 25 min, read-out: pIC50 mGAT4 (converted)): 1.48 µM
IC50 (mGAT4; Experiment No. 3, preincubation time 60 min, read-out: pIC50 mGAT4 (converted)): 1.66 µM
IC50 (mGAT4; Experiment No. 4, preincubation time 25 min, read-out: pIC50 mGAT4 (converted)): 2 µM
IC50 (mGAT4; Experiment No. 4, preincubation time 60 min, read-out: pIC50 mGAT4 (converted)): 0.617 µM
IC50 (mGAT4; Experiment No. 5, preincubation time 25 min, read-out: pIC50 mGAT4 (converted)): 1.58 µM
IC50 (mGAT4; Experiment No. 5, preincubation time 60 min, read-out: pIC50 mGAT4 (converted)): 1.26 µM
IC50 (mGAT4; Experiment No. 6, preincubation time 25 min, read-out: pIC50 mGAT4 (converted)): 1.38 µM
IC50 (mGAT4; Experiment No. 6, preincubation time 60 min, read-out: pIC50 mGAT4 (converted)): 1.02 µM
Normalized pIC50 mGAT4 (mGAT4; preincubation time 10 min, experiments 1-3, relative to 25 min = 100.00): 97.98
IC50 (mGAT4; preincubation time 10 min, experiments 1-3, read-out: Average pIC50 mGAT4 (converted)): 2.14 µM
Normalized pIC50 mGAT4 (mGAT4; preincubation time 25 min, experiments 1-3 (reference)): 100.00
IC50 (mGAT4; preincubation time 25 min, experiments 1-3, read-out: Average pIC50 mGAT4 (converted)): 1.41 µM
Normalized pIC50 mGAT4 (mGAT4; preincubation time 25 min, experiments 4-6 (reference)): 100.00
IC50 (mGAT4; preincubation time 25 min, experiments 4-6, read-out: Average pIC50 mGAT4 (converted)): 1.62 µM
Normalized pIC50 mGAT4 (mGAT4; preincubation time 60 min, experiments 1-3, relative to 25 min = 100.00): 101.08
IC50 (mGAT4; preincubation time 60 min, experiments 1-3, read-out: Average pIC50 mGAT4 (converted)): 1.23 µM
Normalized pIC50 mGAT4 (mGAT4; preincubation time 60 min, experiments 4-6, relative to 25 min = 100.00): 104.26
IC50 (mGAT4; preincubation time 60 min, experiments 4-6, read-out: Average pIC50 mGAT4 (converted)): 0.933 µM
Structure (SMILES): COc1ccc(C(OCCN2CCCC(C(=O)O)C2)(c2ccc(C=O)cc2)c2ccc(OC)cc2)cc1 (racemic) [5 a, rac‐ 1‐{2‐[(4‐Formylphenyl)bis(4‐methoxyphenyl)methoxy]ethyl}piper‐idine‐3‐carboxylic acid]

Source: publication PMC7317212 (Chemmedchem, 2020)
